Laboratory results published in ChEMBL document CHEMBL1770141, “Quinolino-benzo-[5, 6]-dihydroisoquindolium compounds derived from berberine: a new class of highly selective ligands for G-quadruplex DNA in c-myc oncogene” (Eur J Med Chem, 2011).
pIC50: −log10 of the molar value. Active and inactive are the calls of the source. The rule behind the calls is not given here.

Tests used:
Nucleic Acid [1] = assay: Thermal stability of c-MYC FPu18T G-quadruplex DNA assessed as stabilization temperature at 2 uM by FRET assay; assay type: nucleic-acid assay
Nucleic Acid [2] = assay: Thermal stability of F10T duplex DNA assessed as stabilization temperature at 2 uM by FRET assay; assay type: nucleic-acid assay
[3] = Cytotoxicity against human GLC82 cells after 48 hrs by MTT assay; assay type: functional, cell-based; conditions: GLC82, 48 h
HL-60 [4] = assay: Cytotoxicity against human HL60 cells after 48 hrs by MTT assay; assay type: functional, cell-based; conditions: HL-60, 48 h
NCI-H460 = assay: Cytotoxicity against human NCI-H460 cells after 48 hrs by MTT assay; assay type: functional, cell-based; conditions: NCI-H460, 48 h
Nucleic Acid [5] = assay: Inhibition of c-myc G-quadruplex formation in oligonucleotide Pu27 after 3 mins by PCR stop assay; assay type: nucleic-acid assay
ECV-304 [6] = assay: Cytotoxicity against human ECV304 cells after 48 hrs by MTT assay; assay type: functional, cell-based; conditions: ECV-304, 48 h
Nucleic Acid [7] = assay: Binding affinity to oligonucleotide Pu18 DNA assessed as induction of Pu18G-quadruplex DNA negative peak at 240 nm bandwidth by circula dichroism spectroscopy; assay type: nucleic-acid assay
Nucleic Acid [8] = assay: Binding affinity to oligonucleotide Pu18 DNA assessed as induction of Pu18G-quadruplex DNA at 262 nm bandwidth by circula dichroism spectroscopy; assay type: nucleic-acid assay
Nucleic Acid [9] = assay: Thermal stability of c-MYC FPu18T G-quadruplex DNA assessed as stabilization temperature at 2 uM by FRET assay in presence of 10 uM duplex DNA competitor; assay type: nucleic-acid assay
ECV-304 [10] = assay: Induction of growth phase arrest in human ECV304 cells at 0.5 uM after 16 days; assay type: functional, cell-based
HL-60 [11] = assay: Induction of growth phase arrest in human HL60 cells expressing c-myc gene at 0.5 uM after 16 days; assay type: functional, cell-based
HL-60 [12] = assay: Inhibition of c-myc gene transcription in human HL60 cells assessed as c-myc mRNA level normalized to GAPDH mRNA level by RT-PCR; assay type: functional, cell-based
Nucleic Acid [13] = assay: Binding affinity to oligonucleotide Pu18 DNA assessed as induction of Pu18G-quadruplex DNA positive shift to at 262 nm bandwidth by circula dichroism spectroscopy; assay type: nucleic-acid assay
ECV-304 [14] = assay: Inhibition of c-myc gene transcription in human ECV304 cells assessed as c-myc mRNA level normalized to GAPDH mRNA level by RT-PCR; assay type: functional, cell-based

Row | SMILES | ΔTm (Nucleic Acid [1]) | ΔTm (Nucleic Acid [2]) | pIC50 [3] | pIC50 (HL-60 [4]) | pIC50 (NCI-H460) | pIC50 (Nucleic Acid [5]) | pIC50 (ECV-304 [6]) | Activity (Nucleic Acid [7]) | Activity (Nucleic Acid [8]) | ΔTm (Nucleic Acid [9]) | Activity (ECV-304 [10]) | Activity (HL-60 [11]) | inhibition (HL-60 [12]) | Activity (Nucleic Acid [13]) | inhibition (ECV-304 [14])
1 | COc1ccc2cc3[n+](cc2c1OC)CCc1cc2c(cc1-3)OCO2 | 1 °C | 2 °C | – | – | – | – | – | – | – | – | – | – | – | – | –
2 | COc1ccc2cc3[n+](cc2c1NCCN(C)C)CCc1cc2c(cc1-3)OCO2 | 19 °C | 0 °C | 4.44 | 4.42 | 4.25 | 5.41 | < 4.00 | – | – | – | – | – | – | – | –
3 | COc1ccc2cc3[n+](c4c2c1N(CCCCCCN)C=C4)CCc1cc2c(cc1-3)OCO2 | 29 °C | 0.5 °C | 5.00 | 5.70 | 4.89 | 5.72 | < 4.00 | Active | Active | 27.5 °C | inactive | Active | Active | Active | inactive
4 | COc1ccc2cc3[n+](c4c2c1N(CCN(C)C)C=C4)CCc1cc2c(cc1-3)OCO2 | 20 °C | 0 °C | 4.51 | 4.92 | 4.22 | 5.47 | < 4.00 | – | – | 19.5 °C | – | – | – | – | –
5 | COc1ccc2cc3[n+](c4c2c1N(CCCN1CCOCC1)C=C4)CCc1cc2c(cc1-3)OCO2 | 23 °C | 0 °C | 4.52 | 4.90 | 4.44 | 5.37 | < 4.00 | – | – | 23 °C | – | – | – | – | –
6 | COc1ccc2cc3[n+](cc2c1NCCCCCCN)CCc1cc2c(cc1-3)OCO2 | 29 °C | 2 °C | 5.40 | 5.26 | 5.05 | 5.70 | < 4.00 | – | – | – | Active | Active | Active | – | Active
7 | COc1ccc2cc3[n+](cc2c1NCCCN1CCOCC1)CCc1cc2c(cc1-3)OCO2 | 17 °C | 0 °C | 4.07 | 4.69 | < 4.00 | 5.32 | < 4.00 | – | – | – | – | – | – | – | –
8 | COc1ccc2cc3[n+](cc2c1NCCCN(C)C)CCc1cc2c(cc1-3)OCO2 | 20 °C | 1 °C | 4.54 | 4.56 | 4.19 | 5.48 | < 4.00 | – | – | – | – | – | – | – | –
9 | COc1ccc2cc3[n+](c4c2c1N(CCCN(C)C)C=C4)CCc1cc2c(cc1-3)OCO2 | 25 °C | 0 °C | 5.30 | 5.10 | 5.05 | 5.52 | < 4.00 | – | – | 24 °C | – | – | – | – | –
